Results taken from the supplement of paper PMC10627819.

Assays:
S. aureus Newman = assay: Bliss interaction score (quartile over a dose matrix) (fitness difference); higher = more antagonism (negative = synergy)
Procedure, shortened: (§1)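 Fitness was derived from optical density at entry into stationary phase, divided by the robust mean of the no-drug wells on the same plate. That reading was taken as OD595, and the ratio was capped at 1. Single-drug fitness was inferred from the combination data. The Bliss score, observed fitness minus the expected product of single-drug fitness, was summarised as quartiles over technical, biological and donor/recipient replicates.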

B. subtilis 168 [1] = assay: as above
Procedure, shortened: as §1

S. pneumoniae D39V [2] = assay: as above
Procedure, shortened: as §1

S. aureus DSM 20231 = assay: as above
Procedure, shortened: as §1

B. subtilis 168 [3] = assay: fitness (endpoint OD595 vs no drug) (fraction); higher = more growth
Procedure, shortened: (§2)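 Fitness was measured as bacterial growth in 384-well plates inoculated at OD595 0.01 (30 µl, or 55 µl for S. pneumoniae). Media were TSB, LB Lennox or CY, at 37 °C. OD595 was read every 30 min for 14 h and background-subtracted against the first reading. Fitness is OD595 at the transition into stationary phase divided by the robust mean of no-drug control wells, capped at 1.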

S. pneumoniae D39V [4] = assay: as above
Procedure, shortened: as §2
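Wherever Bliss interaction score (quartile over a dose matrix) is given: first quartile when negative (synergy) and third quartile when positive (antagonism).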

CCC[C@@H]1C[C@@H](C(=O)N[C@@H]([C@H]2O[C@H](SC)[C@H](O)[C@@H](O)[C@H]2O)[C@H](C)Cl)N(C)C1 [Clindamycin] + C[C@H]1c2cccc(O)c2C(=O)C2=C(O)[C@]3(O)C(=O)C(C(N)=O)=C(O)[C@@H](N(C)C)[C@@H]3[C@@H](O)[C@@H]21 [Doxycycline]
Settings | Bliss interaction score
B. subtilis 168 [1] | -0.184
S. aureus DSM 20231 | -0.0562
S. aureus Newman | -0.135
S. pneumoniae D39V [2] | -0.151

fitness, one replicate
Settings | partner 0.003875 µg/mL | partner 0.00775 µg/mL | partner 0.02 µg/mL | partner 0.031 µg/mL | partner 0.04 µg/mL | partner 0.062 µg/mL | partner 0.08 µg/mL
B. subtilis 168 [3], first compound 0.0039 µg/mL | – | – | 0.97 | – | 0.891 | – | 0.677
B. subtilis 168 [3], first compound 0.0078 µg/mL | – | – | 0.831 | – | 0.781 | – | 0.515
B. subtilis 168 [3], first compound 0.0156 µg/mL | – | – | 0.824 | – | 0.743 | – | 0.235
S. pneumoniae D39V [4], first compound 0.015 µg/mL | 0.934 | 0.931 | – | 0.803 | – | 0.567 | –
S. pneumoniae D39V [4], first compound 0.03 µg/mL | 0.778 | 0.777 | – | 0.588 | – | 0.359 | –
S. pneumoniae D39V [4], first compound 0.06 µg/mL | 0.714 | 0.743 | – | 0.405 | – | 0.163 | –

Settings | fitness
B. subtilis 168 [3], first compound 0.0625 µg/mL, partner 0.04 µg/mL | 0.406
B. subtilis 168 [3], first compound 0.0625 µg/mL, partner 0.08 µg/mL | 0.0499
B. subtilis 168 [3], first compound 0.125 µg/mL, partner 0.02 µg/mL | 0.389
B. subtilis 168 [3], first compound 0.125 µg/mL, partner 0.04 µg/mL | 0.164
B. subtilis 168 [3], first compound 0.125 µg/mL, partner 0.08 µg/mL | 0.0428
B. subtilis 168 [3], first compound 0.25 µg/mL, partner 0.02 µg/mL | 0.293
B. subtilis 168 [3], first compound 0.25 µg/mL, partner 0.04 µg/mL | 0.11
B. subtilis 168 [3], first compound 0.25 µg/mL, partner 0.08 µg/mL | 0.0404
S. pneumoniae D39V [4], first compound 0.0125 µg/mL, partner 0.0155 µg/mL | 0.451
S. pneumoniae D39V [4], first compound 0.0125 µg/mL, partner 0.031 µg/mL | 0.35
S. pneumoniae D39V [4], first compound 0.0125 µg/mL, partner 0.062 µg/mL | 0.114
S. pneumoniae D39V [4], first compound 0.015 µg/mL, partner 0.0155 µg/mL | 0.876
S. pneumoniae D39V [4], first compound 0.025 µg/mL, partner 0.0155 µg/mL | 0.28
S. pneumoniae D39V [4], first compound 0.025 µg/mL, partner 0.031 µg/mL | 0.245
S. pneumoniae D39V [4], first compound 0.025 µg/mL, partner 0.062 µg/mL | 0.078
S. pneumoniae D39V [4], first compound 0.03 µg/mL, partner 0.0155 µg/mL | 0.745
S. pneumoniae D39V [4], first compound 0.05 µg/mL, partner 0.0155 µg/mL | 0.0637
S. pneumoniae D39V [4], first compound 0.05 µg/mL, partner 0.031 µg/mL | 0.0376
S. pneumoniae D39V [4], first compound 0.05 µg/mL, partner 0.062 µg/mL | 0.073
S. pneumoniae D39V [4], first compound 0.06 µg/mL, partner 0.0155 µg/mL | 0.577

O=C(O[C@@H]1Cc2c(O)cc(O)cc2O[C@@H]1c1cc(O)c(O)c(O)c1)c1cc(O)c(O)c(O)c1 [EGCG] + CCC(C)C1C(=O)NC(=C)C(=O)NC(C(=O)NC(CSCC(C(=O)N1)NC(=O)/C(=C/C)/NC(=O)C(C(C)CC)N)C(=O)NC2C(SCC(NC(=O)CNC(=O)C3CCCN3C2=O)C(=O)NC(CCCCN)C(=O)NC4C(SCC(NC(=O)CNC(=O)C(NC(=O)C(NC(=O)C(NC(=O)CNC4=O)C)CC(C)C)CCSC)C(=O)NC(CC(=O)N)C(=O)NC(CCSC)C(=O)NC(CCCCN)C(=O)NC5C(SCC6C(=O)NC(C(=O)NC(CSC(C(C(=O)N6)NC(=O)C(NC5=O)C)C)C(=O)NC(CO)C(=O)NC(C(C)CC)C(=O)NC(CC7=CN=CN7)C(=O)NC(C(C)C)C(=O)NC(=C)C(=O)NC(CCCCN)C(=O)O)CC8=CN=CN8)C)C)C)CC(C)C [Nisin]
main component drawn
Settings | Bliss interaction score
B. subtilis 168 [1] | -0.0674
S. aureus DSM 20231 | 0.165
S. aureus Newman | 0.134
S. pneumoniae D39V [2] | 0.11

fitness, main component drawn
Settings | first compound 6.25 µg/mL | first compound 12.5 µg/mL | first compound 25 µg/mL | first compound 50 µg/mL
B. subtilis 168 [3], partner 0.5 µg/mL | 0.853 | 0.761 | – | –
B. subtilis 168 [3], partner 1 µg/mL | 0.813 | 0.619 | – | –
B. subtilis 168 [3], partner 2 µg/mL | 0.432 | 0.308 | 0.21 | –
S. pneumoniae D39V [4], partner 0.4275 µg/mL | – | 0.965 | 0.967 | 0.982
S. pneumoniae D39V [4], partner 0.855 µg/mL | – | 0.989 | ≥ 1 | ≥ 1
S. pneumoniae D39V [4], partner 1.6 µg/mL | – | 0.0156 | 0.0307 | –
S. pneumoniae D39V [4], partner 1.71 µg/mL | – | 0.105 | 0.131 | 0.244
S. pneumoniae D39V [4], partner 3.2 µg/mL | – | 0.0612 | – | –
S. pneumoniae D39V [4], partner 6.4 µg/mL | – | 0.08 | 0.046 | 0.0006

fitness, B. subtilis 168 [3], one replicate, main component drawn
Settings | partner 1.25 µg/mL | partner 1.6 µg/mL | partner 2.5 µg/mL | partner 3.2 µg/mL | partner 4 µg/mL | partner 5 µg/mL | partner 6.4 µg/mL | partner 8 µg/mL | partner 16 µg/mL
first compound 6.25 µg/mL | ≥ 1 | 0.616 | 0.682 | 0.0933 | 0.0068 | 0.154 | 0.0135 | 0.069 | 0.0181
first compound 12.5 µg/mL | 0.625 | 0.199 | 0.282 | 0.0301 | 0.0461 | 0.0396 | 0.0233 | 0.0351 | 0.0262
first compound 25 µg/mL | 0.247 | 0.0657 | 0.0742 | 0.0436 | 0.0163 | 0.0343 | 0.0151 | 0.044 | 0.0094

O=C(O[C@@H]1Cc2c(O)cc(O)cc2O[C@@H]1c1cc(O)c(O)c(O)c1)c1cc(O)c(O)c(O)c1 [EGCG] + CN(C)C(=O)C(CCN1CCC(O)(c2ccc(Cl)cc2)CC1)(c1ccccc1)c1ccccc1 [Loperamide]
Settings | Bliss interaction score
B. subtilis 168 [1] | -0.097
S. aureus DSM 20231 | 0.183
S. aureus Newman | -0.0758
S. pneumoniae D39V [2] | 0.0701

fitness
Settings | first compound 6.25 µg/mL | first compound 12.5 µg/mL | first compound 25 µg/mL | first compound 50 µg/mL
B. subtilis 168 [3], partner 25 µg/mL | – | – | 0.0734 | –
B. subtilis 168 [3], partner 50 µg/mL | – | 0.0521 | 0.0237 | –
B. subtilis 168 [3], partner 100 µg/mL | 0.0302 | 0.0337 | 0.0599 | –
S. pneumoniae D39V [4], partner 17.14 µg/mL | – | 0.91 | 0.921 | 0.965
S. pneumoniae D39V [4], partner 20 µg/mL | – | 0.988 | ≥ 1 | 0.991
S. pneumoniae D39V [4], partner 34.28 µg/mL | – | 0.895 | 0.982 | 0.992
S. pneumoniae D39V [4], partner 40 µg/mL | – | 0.984 | ≥ 1 | ≥ 1

S. pneumoniae D39V [4], partner 68.57 µg/mL, one replicate
Settings | fitness
first compound 12.5 µg/mL | 0.491
first compound 25 µg/mL | 0.958
first compound 50 µg/mL | 0.891
